Results: ChEMBL document CHEMBL3734711, “Discovery of novel sphingosine kinase 1 inhibitors via structure-based hierarchical virtual screening” (Medchemcomm, 2015)
Calls of active or inactive are those of the source. No cut-off for these calls is given here.

Experiments:
U-937 = experiment: Antiproliferative activity against human U937 cells after 72 hrs by MTT assay; type: functional, cell-based
Sphingosine kinase 1 [1] = target: T1, Sphingosine kinase 1 (Homo sapiens, UniProt Q9NYA1); experiment: Inhibition of human recombinant SphK1 at 50 uM preincubated for 5 mins followed by substrate addition measured for 60 mins by plate reader assay
[2] = target: T2, Sphingosine kinase 2 (Homo sapiens) (UniProt Q9NRA0); experiment: Inhibition of human recombinant SphK2 at 500 uM preincubated for 5 mins followed by substrate addition measured for 60 mins by plate reader assay
T2 sequence (whole entry): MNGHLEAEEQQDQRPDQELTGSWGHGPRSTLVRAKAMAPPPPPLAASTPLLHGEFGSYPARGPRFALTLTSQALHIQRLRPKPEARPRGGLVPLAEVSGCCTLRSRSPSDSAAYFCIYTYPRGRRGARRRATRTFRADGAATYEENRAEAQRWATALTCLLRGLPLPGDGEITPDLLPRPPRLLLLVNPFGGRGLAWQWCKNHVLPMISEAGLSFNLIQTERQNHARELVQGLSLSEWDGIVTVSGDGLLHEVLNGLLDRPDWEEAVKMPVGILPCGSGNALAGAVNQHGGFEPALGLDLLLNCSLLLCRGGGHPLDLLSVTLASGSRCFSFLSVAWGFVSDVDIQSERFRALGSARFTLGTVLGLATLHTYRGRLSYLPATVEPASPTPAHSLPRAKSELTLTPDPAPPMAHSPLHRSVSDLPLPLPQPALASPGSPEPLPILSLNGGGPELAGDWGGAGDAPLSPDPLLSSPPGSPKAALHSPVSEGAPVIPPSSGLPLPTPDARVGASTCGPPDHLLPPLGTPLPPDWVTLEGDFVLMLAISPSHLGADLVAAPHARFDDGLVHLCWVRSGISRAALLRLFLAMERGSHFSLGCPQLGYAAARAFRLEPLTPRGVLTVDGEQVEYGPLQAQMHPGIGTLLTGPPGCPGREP

Sphingosine kinase 2 = target: T3, Sphingosine kinase 2 (Homo sapiens, UniProt Q9NRA0); experiment: Inhibition of human recombinant SphK2 preincubated for 5 mins followed by substrate addition measured for 60 mins by plate reader assay
T3 sequence (Q9NRA0 whole entry): T2 sequence (whole entry)

[3] = target: T2, Sphingosine kinase 2 (Homo sapiens); experiment: Inhibition of human recombinant SphK2 at 50 uM preincubated for 5 mins followed by substrate addition measured for 60 mins by plate reader assay
Sphingosine kinase 1 [4] = target: T1, Sphingosine kinase 1; experiment: Inhibition of human recombinant SphK1 preincubated for 5 mins followed by substrate addition measured for 60 mins by plate reader assay

T1 sequence (Q9NYA1 whole entry): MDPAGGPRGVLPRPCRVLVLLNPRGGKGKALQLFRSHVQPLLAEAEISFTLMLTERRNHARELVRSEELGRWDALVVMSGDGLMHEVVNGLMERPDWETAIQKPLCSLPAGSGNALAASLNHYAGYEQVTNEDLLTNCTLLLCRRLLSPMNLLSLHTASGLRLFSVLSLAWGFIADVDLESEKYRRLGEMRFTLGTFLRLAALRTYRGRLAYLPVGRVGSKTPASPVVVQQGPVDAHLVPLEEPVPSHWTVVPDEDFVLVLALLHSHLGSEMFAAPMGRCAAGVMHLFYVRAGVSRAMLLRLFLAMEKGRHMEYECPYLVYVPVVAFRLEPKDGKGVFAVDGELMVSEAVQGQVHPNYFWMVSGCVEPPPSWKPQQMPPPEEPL

Row | SMILES | Activity (U-937) | inhibition (Sphingosine kinase 1 [1]) [%] | inhibition [2] | IC50 (Sphingosine kinase 2) [µM] | inhibition [3] | IC50 (Sphingosine kinase 1 [4]) [µM]
1 | O=C(N/N=C/c1cccc(OCc2ccccc2)c1)c1cc(O)c(O)c(O)c1 | Dose-dependent effect | > 60 | Active | 17.1 | Active | 23.1
2 | CCCCCCCCCCCCC/C=C/[C@@H](O)[C@H](CO)N(C)C [DIMETHYLSPINGOSINE] |  |  |  | 16.3 |  | 
3 | CCCOc1ccc(N2C(=O)CC(Nc3ccc(CCO)cc3)C2=O)cc1 (configuration not stated) |  | > 60 | Active | 62.6 | Active | 61.6
4 | CCCCCCCCCCCCCC(=O)Nc1nc2ccccc2[nH]1 |  | > 60 | Active | 31.3 | Active | 40.5
